From patent US11584744B2 (UNIVERSITY OF WASHINGTON, priority 2017, dated 2023)
Read-outs that look alike come from different tables or passages of the source. Marks after values point to notes of the source that are not given here.

Key:
[1] = tested on: S. aureus (ATCC 29213); assay: Macromolecular synthesis assays (radiolabeled precursor incorporation); format: cell-based, Staphylococcus aureus; details: 30 minute incubations
Experimental: Macromolecular synthesis assays: Methods for measuring uptake of radiolabeled precursors by S. aureus (ATCC strain 29213) were adapted from previous publications. For these assays, bacteria were grown in defined media (DM): RPMI-1640 pH 7.3±0.1 without phenol red or L-glutamine (Lonza, Basel, Switzerland) supplemented with 4 mM L-glutamine (Lonza, Basel, Switzerland), 10 mM HEPES (Lonza, Basel, Switzerland), and 1% (w/v) D-glucose (Sigma Aldrich, St. Louis, Mo.). Fresh overnight cultures grown in DM at 37° C. were diluted 1:50 in pre-warmed DM and grown at 37° C. with shaking (150 rpm) until reaching an OD600 of 0.420 correlating to ˜1*10^9 CFUs/mL in mid-log phase. Each compound was assayed in quadruplicate with an 11-point three-fold serial dilution per radioisotope. A pre-warmed 96-well V-bottom plate (Corning 3894; Corning, Corning, Mass.) containing 25 μL of 4× final concentration of test compound was inoculated with 65 μL of mid-log phase bacteria (OD600 of 0.420). Both positive and negative control wells received 25 μL untreated DM and 65 μL of inoculum at the same time. After one minute, 10 μL of radiolabeled precursor (10× final concentration in DM) was added to samples and positive control wells. Final isotope concentrations for assay of [3H]-lysine (protein), [3H]-thymidine (DNA), and [3H]-uridine (RNA) were 10 μCi/mL, 2 μCi/mL, and 2 μCi/mL respectively. […] After termination, 10 μL of 10× radiolabeled precursor was added to negative control wells. The negative control consisted of adding radiolabeled precursors after termination of the bacterial incubation in order to represent background measurement of the isotope. Plates were sealed with plate tape (Thermo Fischer Scientific, Waltham, Mass.) and shaken at 250 rpm for one hour at room temperature. Aliquots of 125 μL were transferred from the 96-well V-bottom plates to 96-well filter plates (Merck Millipore, Billerica, Mass.). To bind macromolecules, the samples were passed through the filter membrane (0.45 μM hydrophilic Durapore PVDF membrane) with a vacuum manifold, then the filter was washed with 4×200 μL 10% TCA and 1×150 μL of 95% ethanol, and dried overnight in vacuum at room temperature. 25 μL Ultima Gold scintillation fluid (Perkin Elmer, Waltham, Mass.) was added to each well and DPM was quantified using a MicroBeta^2-2450 (Perkin Elmer, Waltham, Mass.) scintillation counter. The percent incorporation was determined by subtracting each well by the average negative background and dividing by the average positive incorporation×100. Error bars represent SEM between replicates. The assay was run twice with similar results.

[2] = tested on: G. lamblia (ATCC GL50803); assay: G. lamblia growth inhibition; format: cell-based; details: Giardia duodenalis, read-out: (K) G. lamblia (ATCC GL50803) EC50
[3] = tested on: Cryptosporidium; assay: C. parvum infection model, NOD SCID Gamma mice, oocysts in stool by PCR; format: in vivo, Cryptosporidium parvum; details: treated 5 days
Experimental: (§1) Several compounds of the disclosure were also evaluated in vivo in C. parvum infection model and in acute T. cruzi infection model. Immunosuppressed mice (NOD SCID Gamma) with Cryptosporidium infection were treated for 5 days with test compounds. Cryptosporidium oocysts were quantified in stool by PCR. […] In FIG. 4, gamma-IFN knockout mice were used and, similarly, treated for 5 days with the test compound 2093. […] With respect to the T. cruzi, an efficacy model was employed in which the infection was monitored using bioluminescent T. cruz. With vehicle treatment, all mice died by day 14 post-infection.

[4] = tested on: Cryptosporidium parvum; assay: C. parvum parasite burden model, gamma-IFN knockout mice, bioluminescence readout; format: in vivo
Experimental: FIG. 4 illustrates efficacy of MetRS inhibitors in a parasite burden model of Cryptosporidium parvum infection. About 1,000-fold reduction of parasite burden was observed after treatment by 2093.
as §1

[5] = tested on: T. cruzi; assay: Acute T. cruzi infection model (bioluminescent T. cruzi); format: in vivo, Trypanosoma cruzi; details: 50 mg/kg orally twice a day for five days
Experimental: FIG. 5 illustrates efficacy of a MetRS inhibitor in acute T. cruzi infection model. (A) Study protocol. Compounds were dosed orally with 50 mg/kg twice a day for five days, and the images were taken of day 6, 13, and 24. (B) Images and (C) graphs of the […] results.
as §1

[6] = tested on: T. brucei; assay: T. brucei growth inhibition; format: cell-based, Trypanosoma brucei; details: read-out: (D) T. brucei EC50
[7] = tested on: E. coli (ATCC 25922); assay: MIC susceptibility testing; format: cell-based; details: Escherichia coli, ATCC25922
Summary of the method: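 CLSI broth microdilution with two-fold compound dilutions, in triplicate; cells added in medium at 1×10^6 CFUs/mL, DMSO ≤0.5%. Media: MHB for S. aureus, CA-MHB for E. coli and E. faecium, CA-MHB plus 3% laked horse blood for S. pyogenes (5% CO2).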

[8] = tested on: P. aeruginosa (ATCC 27853); assay: MIC susceptibility testing; format: cell-based; details: Pseudomonas aeruginosa, ATCC27853
[9] = mice infected with T. brucei, 50 mg/kg PO twice-per-day for 10 days; previous publication; cited from earlier work
[10] = Data from Drugbank; cited from earlier work
[11] = Protein binding to human plasma; format: in vitro ADME

For `CCn1c(Cc2ccc(OC)cc2Cl)cn(Cc2nc3nc(Cl)ccc3[nH]2)c1=O` [Compound 2093, 1-({5-chloro-1H-imidazo[4,5-b]pyridin-2-yl}methyl)-4-[(2-chloro-4-methoxyphenyl)methyl]-3-ethyl-2,3-dihydro-1H-imidazol-2-one], the “Incorporation of 3H-Lysine (protein synthesis)” value (from here on “Incorporation of 3H-Lysine”) [1] was “profoundly inhibited”, the EC50 [2] was 10 nM and the suppression of infection [3] was “over 99%”. For the same compound, the “reduction of parasite burden” value ([4]; FIG. 4) was “About 1,000 fold”, the “drop in fecal parasites” value ([4]; gamma-IFN knockout mice, treated 5 days, bioluminescence) was over 4 log and the tissue parasites [5] was “dramatic suppression of tissue parasites”. The survival ([5]; vehicle mice all died by day 14) was 100%.
`CCn1c(Cc2ccc(OC)cc2Cl)cn(Cc2nc3nc(F)ccc3[nH]2)c1=O` [Compound 2114, 4-[(2-chloro-4-methoxyphenyl)methyl]-3-ethyl-1-({5-fluoro-1H-imidazo[4,5-b]pyridin-2-yl}methyl)-2,3-dihydro-1H-imidazol-2-one] showed an EC50 ([6]; Trypanosoma brucei) of 1.4 nM.
For `CCn1c(Cc2ccc(Cl)cc2Cl)cn(Cc2nc3nc(F)ccc3[nH]2)c1=O` [Compound 2062, 4-[(2,4-dichlorophenyl)methyl]-3-ethyl-1-({5-fluoro-1H-imidazo[4,5-b]pyridin-2-yl}methyl)-2,3-dihydro-1H-imidazol-2-one], the EC50 [6] was 3.48 nM.
With `COc1cc(Cl)c(-c2cccc3nc(Cc4nc5nc(Cl)ccc5[nH]4)cn23)cc1OC` [Compound 2144, 2-({5-chloro-1H-imidazo[4,5-b]pyridin-2-yl}methyl)-5-(2-chloro-4,5-dimethoxyphenyl)imidazo[1,2-a]pyridine] the “Incorporation of 3H-Lysine” value [1] was “profoundly inhibited”.
For `Fc1ccc2nc(NCCCNCc3cc(Cl)cc(Cl)c3)[nH]c2n1` [Compound 1614, [(3,5-dichlorophenyl)methyl][3-({5-fluoro-3H-imidazo[4,5-b]pyridin-2-yl}amino)propyl]amine], the MIC [7] is given as over 10 µg/mL, the MIC [8] is given as over 10 µg/mL and the “effects on weight, grooming, or body condition” value [9] is given as “no deleterious effects on weight, grooming, or body condition”.
For `CC(=O)NC[C@H]1CN(c2ccc(N3CCOCC3)c(F)c2)C(=O)O1` [LNZ, linezolid], the “% binding to human plasma” value [10] is listed as 31* %.
With `Fc1ccc2nc(NCCCN[C@@H]3CCNc4c(Cl)cc(Cl)cc43)[nH]c2n1` [Compound 1717, (4R)-6,8-dichloro—N-[3-({5-fluoro-3H-imidazo[4,5-b]pyridin-2-yl}amino)propyl]-1,2,3,4-tetrahydroquinolin-4-amine, reference compound] the MIC [7] was over 10 µg/mL, the MIC [8] was over 10 µg/mL and the “% binding to human plasma” value [11] was 95.4%. For the same compound, the “Incorporation of 3H-Lysine” value [1] was “profoundly inhibited” and the “effects on weight, grooming, or body condition” value [9] was “no deleterious effects on weight, grooming, or body condition”.
